For the assay, the system named is acute liver injury induced by carbon tetrachloride. Description: Protective effect on acute liver injury induced by carbon tetrachloride (mice, oral): plasma GPT activity and BSP retention. As to conditions: 6 h before CCl4 (0.05 ml/kg p.o.); for GPT activity: plasma; for Retained BSP: plasma 30 min after BSP 75 mg/kg i.v. Type of assay: in vivo, mice (ddY, male). How it is done:
1. Protective Effect on Acute Liver Injury Induced by Carbon Tetrachloride
A test compound was dissolved or suspended in olive oil and administered orally to mice (ddY mice, .male., 23±2 g, n=5). After 6 hours, carbon tetrachloride (0.05 ml/kg) was administered orally. 24 Hours after the administration of carbon tetrachloride, BSP (sodium sulfobromophthalein; 75 mg/kg) was administered intravenously. Thirty minutes later, the cardiac blood was collected, and GPT (glutamic-pyruvic transaminase) activity and the retention rate of BSP in the plasma were measured.

Here are results for 16 compounds from US4737494A, “1,3-dithiole derivatives and pharmaceutical compositions” (priority 1984, dated 1988).

Regarding `COC(=O)CC(C(=O)OC)[N+](C)=c1sccs1.[O-][Cl+3]([O-])([O-])[O-]` (stereo not shown) [Compound No. 17, N-(1,3-dithiol-2-ylidene)-N-methyl-N-(1,2-dimethoxycarbonylethyl)ammonium perchlorate], for the setting “1 mg/kg”, the GPT activity stood at 4760 ± 298 Karmen units and the “Retained BSP” value was 135 ± 8.9 µg/mL. For the same compound, under “5 mg/kg”, the GPT activity came out at 3883 ± 324 Karmen units and the “Retained BSP” value was 86 ± 11.1 µg/mL.
The corresponding values for `CC(C)CC(C(=O)OC(C)C)[N+](C)=c1sccs1.[O-][Cl+3]([O-])([O-])[O-]` (stereo not shown) [Compound No. 18, N-(1,3-dithiol-2-ylidene)-N-methyl-N-(3-methyl-1-isopropoxycarbonylbutyl)ammonium perchlorate] are 4100 ± 615 Karmen units, 106.9 ± 17.5 µg/mL, 3250 ± 365 Karmen units and 44.1 ± 5.2 µg/mL.
The corresponding values for `[O-][Cl+3]([O-])([O-])[O-].c1csc(=[N+]2CCOCC2)s1` [Compound No. 26, 4-(1,3-dithiol-2-ylidene)morpholinium perchlorate] are 483 ± 178 Karmen units, 21.6 ± 2.7 µg/mL, 113 ± 32 Karmen units and 13.8 ± 2.5 µg/mL.
On the same counts, the results for `[O-][Cl+3]([O-])([O-])[O-].c1csc(=[N+]2CCCCC2)s1` [Compound No. 34, 1-(1,3-dithiol-2-ylidene)piperidinium perchlorate] are 512 ± 205 Karmen units, 26.5 ± 8.0 µg/mL, 116 ± 39 Karmen units and 15.6 ± 3.0 µg/mL.
`[O-][Cl+3]([O-])([O-])[O-].c1csc(=[N+]2CCCC2)s1` [Compound No. 35, 1-(1,3-dithiol-2-ylidene)pyrrolidinium perchlorate]: where the note is “1 mg/kg”, the GPT activity stood at 4239 ± 816 Karmen units and the “Retained BSP” value is 101.2 ± 22.6 µg/mL. In addition, under “5 mg/kg”, the GPT activity came out at 2472 ± 820 Karmen units and the “Retained BSP” value was determined as 35.8 ± 12.4 µg/mL.
As for `CCOC(=O)C1CCC[N+]1=c1sccs1.[Cl-]` (stereo not shown) [Compound No. 42, 1-(1,3-dithiol-2-ylidene)-2-ethoxycarbonyl pyrrolidinium chloride], for the setting “1 mg/kg”, the GPT activity turned out to be 1673 ± 214 Karmen units and the “Retained BSP” value turned out to be 53.1 ± 6.3 µg/mL. For the same compound, where the note is “5 mg/kg”, the GPT activity came to 231 ± 43 Karmen units and the “Retained BSP” value was determined as 21.4 ± 3.5 µg/mL.
Regarding `NC(=O)C1CCC[N+]1=c1sccs1.[I-]` (stereo not shown) [Compound No. 44, 1-(1,3-dithiol-2-ylidene)-2-carbamoylpyrrolidinium iodide], under “1 mg/kg”, the GPT activity is 6311 ± 867 Karmen units and the “Retained BSP” value amounted to 134.7 ± 21.7 µg/mL. Under “5 mg/kg”, the GPT activity came out at 5213 ± 716 Karmen units and the “Retained BSP” value is 119.4 ± 11.8 µg/mL.
The corresponding values for `CCCCCCC1CCC[N+]1=c1sccs1.[O-][Cl+3]([O-])([O-])[O-]` (stereo not shown) [Compound No. 45, 1-(1,3-dithiol-2-ylidene)-2-(n-hexyl)pyrrolidinium perchlorate] are 4264 ± 521 Karmen units, 110 ± 20.5 µg/mL, 1072 ± 282 Karmen units and 76 ± 6.3 µg/mL.
On the same counts, the results for `[O-][Cl+3]([O-])([O-])[O-].c1ccc(C2CCC[N+]2=c2sccs2)cc1` (stereo not shown) [Compound No. 46, 1-(1,3-dithiol-2-ylidene)-2-phenylpyrrolidinium perchlorate] are 3978 ± 627 Karmen units, 101 ± 17.4 µg/mL, 1040 ± 121 Karmen units and 69 ± 7.1 µg/mL.
The corresponding values for `CC1CCC[N+](=c2sccs2)C1.[O-][Cl+3]([O-])([O-])[O-]` (stereo not shown) [Compound No. 52, 1-(1,3-dithiol-2-ylidene)-3-methylpiperidinium perchlorate] are 2391 ± 325 Karmen units, 87.1 ± 13.4 µg/mL, 138 ± 18 Karmen units and 17.8 ± 4.9 µg/mL.
For `CC1CC[N+](=c2sccs2)CC1.[O-][Cl+3]([O-])([O-])[O-]` (stereo not shown) [Compound No. 53, 1-(1,3-dithiol-2-ylidene)-4-methylpiperidinium perchlorate], where the note is “1 mg/kg”, the GPT activity amounted to 1843 ± 162 Karmen units and the “Retained BSP” value was determined as 70.0 ± 19.3 µg/mL. Further, where the note is “5 mg/kg”, the GPT activity was 193 ± 81 Karmen units and the “Retained BSP” value was 16.9 ± 3.1 µg/mL.
The corresponding values for `O=C(O)C1CC[N+](=c2sccs2)CC1.[O-][Cl+3]([O-])([O-])[O-]` (stereo not shown) [Compound No. 57, 1-(1,3-dithiol-2-ylidene)-4-carboxypiperidinium perchlorate] are 3735 ± 374 Karmen units, 101.1 ± 20.0 µg/mL, 2922 ± 247 Karmen units and 90.1 ± 14.7 µg/mL.
The corresponding values for `NC(=O)C1CC[N+](=c2sccs2)CC1.[I-]` (stereo not shown) [Compound No. 58, 1-(1,3-dithiol-2-ylidene)-4-carbamoylpiperidinium iodide] are 3266 ± 245 Karmen units, 98.1 ± 21.0 µg/mL, 1151 ± 181 Karmen units and 41.5 ± 7.1 µg/mL.
On the same counts, the results for `N#CC1CC[N+](=c2sccs2)CC1.[O-][Cl+3]([O-])([O-])[O-]` (stereo not shown) [Compound No. 59, 1-(1,3-dithiol-2-ylidene)-4-cyanopiperidinium perchlorate] are 2991 ± 382 Karmen units, 110.1 ± 27.3 µg/mL, 763 ± 118 Karmen units and 49.1 ± 8.1 µg/mL.
On to `OC1CC[N+](=c2sccs2)CC1.[O-][Cl+3]([O-])([O-])[O-]` (stereo not shown) [Compound No. 60, 1-(1,3-dithiol-2-ylidene)-4-hydroxypiperidinium perchlorate], for which the GPT activity worked out at 1321 ± 197 Karmen units (1 mg/kg) and 131 ± 10 Karmen units (5 mg/kg). Further, the “Retained BSP” value is 63.4 ± 10.9 µg/mL (1 mg/kg) and 19.1 ± 2.1 µg/mL (5 mg/kg).
Turning to `CC1CC(C)C[N+](=c2sccs2)C1.[I-]` (stereo not shown) [Compound No. 67, 1-(1,3-dithiol-2-ylidene)-3,5-dimethylpiperidinium iodide], under “1 mg/kg”, the GPT activity came out at 2718 ± 431 Karmen units and the “Retained BSP” value worked out at 111.4 ± 17.1 µg/mL. Further, under “5 mg/kg”, the GPT activity was 372 ± 27 Karmen units and the “Retained BSP” value worked out at 21.3 ± 4.0 µg/mL.
